ChEMBL document CHEMBL1201862, “PubChem BioAssay data set” (2004)
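Results reflect a 48-hour exposure of cells in 96-well plates to compound at five concentrations. GI50 is the concentration that inhibits growth by half.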 Calls of active or inactive are those of the source. Rule as the data show it: active = GI50 up to about 1.1 µM and inactive = higher.

Legend:
Assay in all cases: growth of human tumour cells (NCI), 48 h
[1] = tested on: SK-MEL-28
[2] = tested on: OVCAR-3
[3] = tested on: RXF 393
[4] = tested on: U-251
[5] = tested on: 786-0
[6] = tested on: SN12C
[7] = tested on: HCT-116
[8] = tested on: UACC-62
[9] = tested on: SF-539
[10] = tested on: SNB-75
[11] = tested on: A498
[12] = tested on: COLO 205
[13] = tested on: SW-620
[14] = tested on: HOP-62
[15] = tested on: SR
[16] = tested on: TK-10
[17] = tested on: NCI-H522
[18] = tested on: SNB-19
[19] = tested on: DU-145

Measured: GI50

O=c1nc(NC2CCCCO2)ccn1CCO (stereo not given)
inactive: [1] > 100 µM | [2] > 100 µM | [3] > 100 µM | [4] > 100 µM | [5] > 100 µM | [6] > 100 µM | [7] > 100 µM | [8] > 100 µM | [9] > 100 µM | [10] > 100 µM | [11] > 100 µM | [12] > 100 µM | [13] > 100 µM | [14] > 100 µM | [15] > 100 µM | [16] > 100 µM | [17] > 100 µM

C(CCCCc1nnc(N2CCCCC2)o1)CCCc1nnc(N2CCCCC2)o1
inactive: [1] > 100 µM | [2] > 100 µM | [3] > 100 µM | [4] > 100 µM | [5] > 100 µM | [6] > 100 µM | [7] > 100 µM | [9] > 100 µM | [18] > 100 µM | [10] > 100 µM | [11] > 100 µM | [12] > 100 µM | [13] > 100 µM | [19] > 100 µM | [14] > 100 µM | [16] > 100 µM | [17] > 100 µM

COC(=O)c1ccccc1N(C(=O)c1ccccc1)c1ccccc1C
inactive: [1] > 100 µM | [2] 34.6 µM | [3] 30.7 µM | [4] 48.2 µM | [5] 50 µM | [6] > 100 µM | [7] 56.8 µM | [8] 93.8 µM | [18] > 100 µM | [10] > 100 µM | [11] 27.5 µM | [12] 26 µM | [13] 59.8 µM | [14] > 100 µM | [15] 28.2 µM | [16] 41.6 µM | [17] 30.7 µM

CCN(CC)c1ccc(/N=N/c2ccc(-c3nc4ccc[n+](C)c4o3)cc2)cc1
inactive: [2] 10 µM | [3] 10.7 µM | [4] 4.57 µM | [5] 11.4 µM | [6] 15.5 µM | [7] 4.18 µM | [8] 9.27 µM | [9] 5.46 µM | [18] 13.3 µM | [10] 11.6 µM | [11] 15.7 µM | [12] 2.29 µM | [13] 4.76 µM | [14] 16.3 µM | [15] 3.69 µM | [16] 12.3 µM | [17] 4.93 µM

COc1ccc(/C=C2\CSC/C(=C\c3ccc(OC)c(OC)c3OC)C2=O)c(OC)c1OC
inactive: [1] 28.1 µM | [2] 52.1 µM | [3] 15.6 µM | [4] 39.8 µM | [5] 22.3 µM | [6] 24.2 µM | [7] 17 µM | [8] 14.9 µM | [9] 26.4 µM | [18] > 100 µM | [12] 37.9 µM | [13] 20.6 µM | [19] > 100 µM | [14] 60.8 µM | [15] 26.9 µM | [16] 31.6 µM

CCO[C@@]1(COCc2ccccc2)OC(=O)C[C@@H]1N1C(=O)OC[C@@H]1c1ccccc1
inactive: [1] > 100 µM | [2] 41.5 µM | [3] > 100 µM | [4] > 100 µM | [5] > 100 µM | [6] > 100 µM | [7] > 100 µM | [8] > 100 µM | [9] > 100 µM | [18] > 100 µM | [10] > 100 µM | [11] > 100 µM | [12] > 100 µM | [13] > 100 µM | [19] > 100 µM | [14] 26.6 µM | [16] > 100 µM | [17] 84.3 µM

COc1ccccc1/C=C1\CCC(CCN(C)C)(C2=CCCC2)C1=O (stereo not given)
inactive: [1] 17.7 µM | [2] 16.9 µM | [3] 12.8 µM | [4] 16.6 µM | [5] 14.4 µM | [6] 22.1 µM | [7] 12.7 µM | [8] 11.2 µM | [9] 15.1 µM | [18] 16.1 µM | [10] 17.4 µM | [11] 16.6 µM | [12] 10.2 µM | [13] 17.5 µM | [14] 17.3 µM | [15] 31.6 µM | [16] 18.5 µM | [17] 14.1 µM

Cc1cc2c(cc1C)[n+]([O-])c(C(=O)CC(=O)C(=O)Nc1ccccc1C(C)C)c(C)[n+]2[O-]
inactive: [1] > 100 µM | [2] > 100 µM | [3] > 100 µM | [4] > 100 µM | [5] > 100 µM | [6] > 100 µM | [7] > 100 µM | [8] > 100 µM | [9] > 100 µM | [18] > 100 µM | [10] > 100 µM | [11] > 100 µM | [12] > 100 µM | [13] > 100 µM | [14] > 100 µM | [15] > 100 µM | [16] 25.5 µM | [17] > 100 µM

COc1ccc(-c2nc(SCC(=O)N/N=C/c3ccc(N(C)C)cc3)[nH]c2-c2ccc(OC)cc2)cc1
inactive: [1] > 100 µM | [2] 20.1 µM | [3] 33.4 µM | [4] 36.9 µM | [5] 57.7 µM | [6] 82 µM | [7] 37.9 µM | [8] 46.7 µM | [9] > 100 µM | [18] > 100 µM | [10] 62.8 µM | [11] 71.9 µM | [12] 10.2 µM | [13] 48 µM | [19] 78.5 µM | [14] > 100 µM | [16] > 100 µM | [17] 31.3 µM

O=c1c2cc(Cl)ccc2sc2cccc(Cl)c12
inactive: [1] > 100 µM | [2] > 100 µM | [3] > 100 µM | [4] > 100 µM | [5] > 100 µM | [6] > 100 µM | [7] > 100 µM | [8] > 100 µM | [9] > 100 µM | [18] > 100 µM | [11] > 100 µM | [12] > 100 µM | [13] > 100 µM | [14] > 100 µM | [15] > 100 µM | [16] > 100 µM | [17] > 100 µM

O=C(N/C=C1\C(=O)Oc2ccccc2C1=O)Nc1ccccc1
inactive: [1] 87.1 µM | [2] 75 µM | [3] 16.7 µM | [4] 40.2 µM | [5] 43.3 µM | [6] 32.8 µM | [7] 37.7 µM | [8] 38.5 µM | [9] 43.8 µM | [18] 29 µM | [10] 12.8 µM | [11] 35.3 µM | [12] > 100 µM | [13] 61.2 µM | [15] 69 µM | [16] 34 µM | [17] 58.5 µM
